From article PMC12028158, “Synthesis and In Vitro Evaluation of the Anticancer Effect of Novel Phosphonium Vindoline Derivatives” (International Journal of Molecular Sciences, 2025)

Legend:
Assay type in all cases: cell-based
CCRF-CEM [1] = test: NCI60 five-dose screen; details: Homo sapiens, Leukemia, five-dose, read-out: GI50
HL-60(TB) = test: NCI60 five-dose screen; details: Homo sapiens, HL-60, HL-60(TB), Leukemia, five-dose; read-out: GI50
RPMI-8226 = test: NCI60 five-dose screen; details: Homo sapiens; RPMI-8226, Leukemia, five-dose; read-out: GI50
A549/ATCC = test: NCI60 five-dose screen; details: Homo sapiens; A549/ATCC, Non-small Cell Lung Cancer, five-dose; read-out: GI50
EKVX [2] = test: NCI60 five-dose screen; details: Homo sapiens, Non-small Cell Lung Cancer, five-dose, read-out: GI50
HOP-62 = test: NCI60 five-dose screen; details: Homo sapiens; HOP-62, Non-small Cell Lung Cancer, five-dose; read-out: GI50
HOP-92 = test: NCI60 five-dose screen; details: Homo sapiens; HOP-92, Non-small Cell Lung Cancer, five-dose; read-out: GI50
NCI-H522 = test: NCI60 five-dose screen; details: Homo sapiens; NCI-H522, Non-small Cell Lung Cancer, five-dose; read-out: GI50
COLO 205 [3] = test: NCI60 five-dose screen; details: Homo sapiens, COLO 205, COLO 205, Colon Cancer, five-dose; read-out: GI50
HCC-2998 = test: NCI60 five-dose screen; details: Homo sapiens; HCC-2998, Colon Cancer, five-dose; read-out: GI50
KM12 = test: NCI60 five-dose screen; details: Homo sapiens, KM12, KM12, Colon Cancer, five-dose; read-out: GI50
SW-620 = test: NCI60 five-dose screen; details: Homo sapiens; SW-620, Colon Cancer, five-dose; read-out: GI50
SF-268 [4] = test: NCI60 five-dose screen; details: Homo sapiens; SF-268, CNS Cancer, five-dose; read-out: GI50
SF-295 = test: NCI60 five-dose screen; details: Homo sapiens; SF-295, CNS Cancer, five-dose; read-out: GI50
U251 = test: NCI60 five-dose screen; details: Homo sapiens, U-251, U251, CNS Cancer, five-dose; read-out: GI50
MALME-3M [5] = test: NCI60 five-dose screen; details: Homo sapiens; MALME-3M, Melanoma, five-dose; read-out: GI50
MDA-MB-435 [6] = test: NCI60 five-dose screen; details: Homo sapiens; MDA-MB-435, Melanoma, five-dose; read-out: GI50
IGROV1 [7] = test: NCI60 five-dose screen; details: Homo sapiens, IGROV-1; IGROV1, Ovarian Cancer, five-dose; read-out: GI50
OVCAR-3 = test: NCI60 five-dose screen; details: Homo sapiens; OVCAR-3, Ovarian Cancer, five-dose; read-out: GI50
OVCAR-4 = test: NCI60 five-dose screen; details: Homo sapiens; OVCAR-4, Ovarian Cancer, five-dose; read-out: GI50
A498 = test: NCI60 five-dose screen; details: Homo sapiens; A498, Renal Cancer, five-dose; read-out: GI50
ACHN [8] = test: NCI60 five-dose screen; details: Homo sapiens, Renal Cancer, five-dose, read-out: GI50
SN12C = test: NCI60 five-dose screen; details: Homo sapiens, Renal Cancer, five-dose, read-out: GI50
TK-10 = test: NCI60 five-dose screen; details: Homo sapiens; TK-10, Renal Cancer, five-dose; read-out: GI50
T-47D = test: NCI60 five-dose screen; details: Homo sapiens, T47D; T-47D, Breast Cancer, five-dose; read-out: GI50
MDA-MB-468 = test: NCI60 five-dose screen; details: Homo sapiens, MDA-MB-468, MDA-MB-468, Breast Cancer, five-dose; read-out: GI50
CNS Cancer panel = test: NCI60 five-dose screen, panel mean; details: Homo sapiens; mean over CNS Cancer panel; read-out: Mean GI50
Breast Cancer panel = test: NCI60 five-dose screen, panel mean; details: Homo sapiens; mean over Breast Cancer panel; read-out: Mean GI50
CCRF-CEM [9] = test: NCI60 one-dose screen; details: Homo sapiens, 10 μM, one-dose, read-out: Growth percent
EKVX [10] = test: NCI60 one-dose screen; details: Homo sapiens, 10 μM, one-dose, read-out: Growth percent
NCI-H23 = test: NCI60 one-dose screen; details: Homo sapiens; NCI-H23, 10 μM, one-dose; read-out: Growth percent
NCI-H460 = test: NCI60 one-dose screen; details: Homo sapiens; NCI-H460, 10 μM, one-dose; read-out: Growth percent
COLO 205 [11] = test: NCI60 one-dose screen; details: Homo sapiens; COLO 205, 10 μM, one-dose; read-out: Growth percent
HT29 = test: NCI60 one-dose screen; details: Homo sapiens, HT-29; HT29, 10 μM, one-dose; read-out: Growth percent
SF-268 [12] = test: NCI60 one-dose screen; details: Homo sapiens; SF-268, 10 μM, one-dose; read-out: Growth percent
SF-539 = test: NCI60 one-dose screen; details: Homo sapiens; SF-539, 10 μM, one-dose; read-out: Growth percent
SNB-19 = test: NCI60 one-dose screen; details: Homo sapiens; SNB-19, 10 μM, one-dose; read-out: Growth percent
LOX IMVI = test: NCI60 one-dose screen; details: Homo sapiens, 10 μM, one-dose, read-out: Growth percent
MALME-3M [13] = test: NCI60 one-dose screen; details: Homo sapiens; MALME-3M, 10 μM, one-dose; read-out: Growth percent
MDA-MB-435 [14] = test: NCI60 one-dose screen; details: Homo sapiens; MDA-MB-435, 10 μM, one-dose; read-out: Growth percent
SK-MEL-2 = test: NCI60 one-dose screen; details: Homo sapiens; SK-MEL-2, 10 μM, one-dose; read-out: Growth percent
SK-MEL-5 = test: NCI60 one-dose screen; details: Homo sapiens; SK-MEL-5, 10 μM, one-dose; read-out: Growth percent
IGROV1 [15] = test: NCI60 one-dose screen; details: Homo sapiens, IGROV-1; IGROV1, 10 μM, one-dose; read-out: Growth percent
ACHN [16] = test: NCI60 one-dose screen; details: Homo sapiens, 10 μM, one-dose, read-out: Growth percent
DU-145 = test: NCI60 one-dose screen; details: Homo sapiens; DU-145, 10 μM, one-dose; read-out: Growth percent
HS 578T = test: NCI60 one-dose screen; details: Homo sapiens; HS 578T, 10 μM, one-dose; read-out: Growth percent
[17] = system: 60 human tumor cell lines (NCI60); test: NCI60 one-dose screen, overall mean; details: Homo sapiens; mean over 60 cell lines, 10 μM, one-dose; read-out: Mean growth percent

## CC[C@]12C=CCN3CC[C@@]4(c5ccc(OC)cc5N(C)[C@H]4[C@@](O)(C(=O)OC)[C@@H]1OC(=O)CCC[P+](c1ccccc1)(c1ccccc1)c1ccccc1)[C@@H]32 [compound 3, reference compound]
CCRF-CEM [1]
  GI50: 487 nM
HL-60(TB)
  GI50: 124 nM
RPMI-8226
  GI50: 219 nM
A549/ATCC
  GI50: 1350 nM
EKVX [2]
  GI50: 470 nM
HOP-62
  GI50: 1370 nM
HOP-92
  GI50: 66 nM
NCI-H522
  GI50: 216 nM
COLO 205 [3]
  GI50: 161 nM
HCC-2998
  GI50: 436 nM
KM12
  GI50: 297 nM
SW-620
  GI50: 1200 nM
SF-268 [4]
  GI50: 975 nM
SF-295
  GI50: 1450 nM
U251
  GI50: 371 nM
MALME-3M [5]
  GI50: 283 nM
MDA-MB-435 [6]
  GI50: 278 nM
IGROV1 [7]
  GI50: 237 nM
OVCAR-3
  GI50: 369 nM
OVCAR-4
  GI50: 469 nM
A498
  GI50: 1710 nM
ACHN [8]
  GI50: 4530 nM
SN12C
  GI50: 590 nM
TK-10
  GI50: 1480 nM
T-47D
  GI50: 192 nM
MDA-MB-468
  GI50: 126 nM
CNS Cancer panel
  GI50: 760 nM
Breast Cancer panel
  GI50: 450 nM
CCRF-CEM [9]
  activity at 10 µM: 11.2%
EKVX [10]
  activity at 10 µM: 10.3%
NCI-H23
  activity at 10 µM: -8.66%
NCI-H460
  activity at 10 µM: 6.11%
COLO 205 [11]
  activity at 10 µM: -87.9%
HT29
  activity at 10 µM: 2.42%
SF-268 [12]
  activity at 10 µM: 19.2%
SF-539
  activity at 10 µM: 16.2%
SNB-19
  activity at 10 µM: 11%
LOX IMVI
  activity at 10 µM: 8.81%
MALME-3M [13]
  activity at 10 µM: -12.4%
MDA-MB-435 [14]
  activity at 10 µM: -21.6%
SK-MEL-2
  activity at 10 µM: -65.3%
SK-MEL-5
  activity at 10 µM: -91.5%
IGROV1 [15]
  activity at 10 µM: -0.06%
ACHN [16]
  activity at 10 µM: 89.9%
DU-145
  activity at 10 µM: 18%
HS 578T
  activity at 10 µM: 25.5%
[17]
  activity at 10 µM: 3.13%
